Assay results taken from patent US11241501B2, “Anticancer prodrug for overcoming drug resistance” (Korea University Research and Business Foundation, priority 2018, dated 2022).

Experiments:
[1] = Stability on incubation in PBS; format: physicochemical; details: PBS pH 7.4, 37° C., 24 hr
Experimental: To gain further insight into the preliminary stability and activation of conjugates containing DCA, Dox, and a TPP cation targeting entity, both the target conjugate C1 and the control system C3 (an analog of C1 lacking the chloromethyl groups present in DCA; cf. FIG. 1) were prepared. These two conjugates were obtained in excellent yield, as shown in Scheme S1. […] This release was accompanied by a strong emission band at 560 nm corresponding to free Dox (FIG. 2A and FIG. 2B). Further support for the release of free Dox under these conditions came from time-dependent fluorescence experiments, HPLC, and liquid chromatography-mass spectrometry (FIG. 2B and FIG. 2C, and FIG. 7). […] To test the reaction of C1 with various other bioanalytes, the fluorescence response in the presence of various amino acids, enzymes, and biomolecules was recorded.

[2] = tested on: carboxylesterase; test: Carboxylesterase activation, fluorescence response and Dox release; format: biochemical
Experimental: The change in fluorescence intensity is directly related to active Dox release from C1.
FIG. 8 is a bar diagram representing the fluorescence intensity of C1 (5 μM) recorded at 570 nm after 4 h incubation in the presence or absence of carboxylesterase (1 U/ml), and various biological analytes, including amino acids (100 μM), thiols (10 mM, each), and reactive oxygen species (ROS) (200 μM, each) (Excitation at 470 nm). 1) C1 only, 2) L-proline, 3) L-ascorbic acid, 4) L-glutamic acid, 5) nicotinamide adenine dinucleotide (NADH), 6) pepsin, 7) acetylcholinesterase (AChE), 8) butyrylcholinesterase (BChE), 9) L-glutathione, 10) H2O2, 11) hypochlorite ion (OCl^−) 12) C1+esterase;
The maximal fluorescence intensity was recorded after 4 h. […] Note: The change in fluorescence intensity is considered to be proportional to the quantity of active Dox release from […]. […]
To gain further insight into the preliminary stability and activation of conjugates containing DCA, Dox, and a TPP cation targeting entity, both the target conjugate C1 and the control system C3 (an analog of C1 lacking the chloromethyl groups present in DCA; cf. FIG. 1) were prepared. […] Further support for the release of free Dox under these conditions came from time-dependent fluorescence experiments, HPLC, and liquid chromatography-mass spectrometry (FIG. 2B and FIG. 2C, and FIG. 7). […]

[3] = WST cell viability assay; format: cell-based, human; details: human; HepG2 cells, WST assay; read-out: IC50 (cytotoxicity)
Experimental: (§1) HepG2 cells treated with each compound (5 μM, 24 hr) were co-stained with the mitochondrial marker MitoTracker (green). Boxed regions show co-localization of the test compounds and probe within the mitochondria. […] Experiments were carried out in triplicate and the data shown represent means±SD. **p<0.01. […] HepG2 cells were incubated with BNPP (100 μM) for 2 hr prior to C1 treatment. **p<0.01. […] Cleaved caspase-3 and PARP-1 levels were examined to assess apoptosis induction. C, cleaved.
(§2) Cells were seeded in 24 well plates at 2×10^5 cells per well and were allowed to adhere for at least 24 h, growth medium was replaced with medium containing C1 or its analogues at the indicated concentrations and times, and cell viability was assessed via the WST-1 assay (Roche Diagnostics, Laval, QC, Canada). For the colony formation assay, cells were seeded in 6-well plates. After 24 h, cells were maintained in the presence of each probe or vehicle dimethyl sulfoxide (DMSO) for 10 days. Colonies were fixed with methanol for 10 min and stained with 0.05% crystal violet in 20% ethanol.

[4] = tested on: HepG2 cells; test: WST cell viability assay; format: cell-based, human
Experimental: as §1, §2

[5] = tested on: p21^Waf1 and phosphorylated PDH levels; test: Immunoblot assay of p21Waf1 and phosphorylated PDH; format: cell-based, human
Experimental: as §1
(§3) Immunoblot analyses were performed using antibodies specific for phosphorylated serine 293 PDH-EI (ab92696), p21^Waf1 (sc-397), cleaved PARP (5625), cleaved caspase-3 (9664), COX-IV (4850), and Cytochrome c (4280). They were purchased from Abcam (Cambridge, UK), Santa Cruz Biotechnology (Texas, USA) or Cell Signaling Technology (Massachusetts, USA). Anti-tubulin antibodies were obtained from Sigma-Aldrich (St. Louis, USA). Briefly, cells were washed twice in ice-cold PBS and lysed in a radioimmunoprecipitation assay buffer containing 50 mM Tris/HCl (pH 7.5), 150 mM NaCl, 0.1% sodium dodecyl sulfate (SDS), 1% Triton X-100, 1% sodium deoxycholate, and protease inhibitor mixture. After sonification, the lysate was centrifuged, and the supernatant was recovered and loaded onto a 12% SDS-polyacrylamide gel for electrophoresis.

[6] = tested on: HepG2 cells; test: Immunoblot assay of cleaved caspase-3 and PARP-1; format: cell-based, human
Experimental: as §3

[7] = Cell fractionation assay, mitochondria-to-nucleus trafficking; format: cell-based; details: after treatment with C1
Experimental: (§4) Fluorescence intensities were measured with SpectraMAX 13. Data represent means±SD. **p<0.01. […] Data represent means±SD. **[…]. […] Data represent the mean±SD (n=3 experimental replicates). *p<0.05, **p<0.01. […] MCF7/Dox cells were treated with C1 or C3 as indicated, and the cytosolic (C) and mitochondrial (M) fractions were subjected to immunoblot assay. COX-IV and tubulin were used as markers for the mitochondria and cytosol fractions, respectively.
Separation of cytosolic and mitochondrial fractions was performed using the Mitochondria Isolation Kit (Thermo Scientific, USA). Briefly, the cells were washed with cold PBS and lysed by 5-cycle freeze-thawing in Mitochondria Isolation Reagent A buffer, containing 10 mM phenylmethylsulfonyl fluoride (PMSF). After incubation on ice for 10 min and the addition of Mitochondria Isolation Reagent B buffer, the lysates were centrifuged at 700×g for 10 min following inverting by treating with Mitochondria Isolation Reagent C buffer. The supernatant was transferred to a new tube, centrifuged at 12 000×g for 15 min at 4° C., and collected as the cytosolic fraction. After adding […] of Mitochondria Isolation Reagent C, the pellet was centrifuged at 12 000×g for 5 min and collected as the mitochondrial fraction.

[8] = tested on: MCF7/Dox cells; test: Cytochrome c release from mitochondria, immunoblot; format: cell-based, human
Experimental: as §4
as §3, with “electrophoresis. […]” for “electrophoresis.”

[9] = tested on: MCF7 cells; test: Colony formation assay; format: cell-based, human; details: 10 days
Experimental: as §2

[10] = tested on: MCF7/Dox cells; test: Cell death assay, Annexin V flow cytometry; format: cell-based, human; details: 5 μM
Experimental: MCF-7/Dox cells (8×10^5 cells) were seeded in 60 mm dishes and cultured for 24 h. The cells were treated with 5 μM compound C1, C3, DCA and/or doxorubicin for 48 h. After washing and centrifugation, the harvested cells were stained with the Annexin V/PI Apoptosis Detection kit (BD Biosciences, USA) for 1 min at room temperature. The apoptotic cells were then quantified on a FACSCalibur™ flow cytometer and analyzed using the CELLQUEST™ software (BD Biosciences).

Compound: COc1cccc2c1C(=O)c1c(O)c3c(c(O)c1C2=O)C[C@@](O)(C(=O)CO)C[C@@H]3OC1C[C@H](NC(=O)OC(Cc2cn(CCCCCC[P+](c3ccccc3)(c3ccccc3)c3ccccc3)nn2)c2ccc(NC(=O)C(Cl)Cl)cc2)[C@H](O)[C@H](C)O1.[Br-] (stereo partly drawn) [C1]
- decomposition upon incubation in PBS [1]: no decomposition was observed
- fluorescence response to various amino acids, enzymes and biomolecules versus esterase ([2]; 590 nm emission, 4 h incubation): large fluorescence enhancements in the 590 nm emission feature were observed upon treatment with the esterase but not in its absence
- response to carboxylesterase (bond scission, Dox release) ([2]; carboxylesterase 1 U/mL, PBS, 37° C.): scission of the aniline-amide bond and release of Dox
- IC50 [3]: 22.1 ± 0.325 µM
- effect of BNPP pretreatment on C1-driven decrease in cell viability ([4]; HepG2, BNPP 100 μM 2 hr before treatment): strongly attenuated
- cell death in cell-survival assays ([4]; compared with C3-C6): greater cell death in a dose-dependent manner
- effect on p21^Waf1 and phosphorylated PDH levels [5]: up- and downregulation of p21^Waf1 and phosphorylated PDH levels
- apoptosis-inducing activity (cleaved caspase-3 and PARP-1) [6]: greater apoptosis-inducing activity than C2
- time for released Dox to translocate to the nucleus [7]: approximately 2 hr
- cytochrome c release, cleavage of caspase-3 and PARP-1, decrease in cell viability [8]: induces cytochrome c release from the mitochondria
- colony-forming ability [9]: strong inhibitory effect
- apoptosis by Annexin V flow cytometry [10]: promotes both early and late apoptosis
